Test results from article PMC8630693 (2021).

Tests used:
[1] = system: BCL-2 RT template (RNA, G4) UAAUACGACUCACUAUAGGGCAUGCCAAGGGGGAAACACCAGAAUCAAGUGUUCCGCGUGAUUGAAGACACCCCCUCGUCCAAGAAUGCAAAGCACAUCCAGGGGGCCGUGGGGUGGGAGCUGGGGAUAAAAUAGCUGGAUUAUAACUCCUCUUCUUUCUCUCGAGAGGUGCCGUUGGCCCCCGUUGCUUUUCCUCUGGGAAGGAUG; experiment: reverse transcriptase stop assay, qPCR; conditions: MgCl2 (concentration not stated), 10 µM compound, 100 nM template, 37°C
[2] = system: mut 1 (RNA, G4) GGAUGAGUGGGAGGAGG; experiment: SPR; conditions: 100 mM KCl; 10 mM HEPES pH 7.4, 25°C; printed kd/ka gives 3.9e-3
[3] = system: mut 2 (RNA, G4) UGAGGAGGGUGAGGAGG; experiment: SPR; conditions: 100 mM KCl; 10 mM HEPES pH 7.4, 25°C; printed kd/ka gives 1.01e-2
[4] = system: mut 3 (RNA, G4) GGAGGAGGGUGAGUAGG; experiment: SPR; conditions: 100 mM KCl; 10 mM HEPES pH 7.4, 25°C; highest OMT 200 µM
[5] = system: mut 4 (RNA, G4) UGAGGAGGGGGAGGAUG; experiment: SPR; conditions: 100 mM KCl; 10 mM HEPES pH 7.4, 25°C; highest OMT 200 µM
[6] = system: BCL-2 RNA G-quadruplex (SPR) (RNA, G4) GGGGGCCGUGGGGUGGGAGCUGGGG; experiment: SPR; conditions: 100 mM KCl; 10 mM HEPES pH 7.4, 25°C; highest OMT 200 µM
[7] = system: NRAS RNA G-quadruplex (SPR) (RNA, G4) UGUGGGAGGGGCGGGUCUGGG; experiment: SPR; conditions: 100 mM KCl; 10 mM HEPES pH 7.4, 25°C; highest OMT 200 µM
[8] = system: RNA G-quadruplex (VEGF), unlabelled (RNA, G4) GGAGGAGGGGGAGGAGG; experiment: ESI-MS; conditions: 100 mM trimethylammonium acetate; 50% methanol; 10 µM RNA, 30 µM OMT
[9] = system: RNA G-quadruplex (VEGF), unlabelled (RNA, G4) GGAGGAGGGGGAGGAGG; experiment: CD melting; conditions: 100 mM KCl/NaCl (so in the source); 10 mM Tris pH 7.4; 3:1 OMT/G-quadruplex; 10 µM RNA; Tm 72.7 to 76.3
[10] = system: DNA double strand (DNA, duplex) GCGCGCGCGCGCGCGCGCGCGCGC; experiment: UV melting; conditions: 100 mM KCl/NaCl (so in the source); 10 mM Tris pH 7.4

In the case of `C[n+]1ccc(-c2c3nc(c(-c4cc[n+](C)cc4)c4ccc([nH]4)c(-c4cc[n+](C)cc4)c4nc(c(-c5cc[n+](C)cc5)c5ccc2[nH]5)C=C4)C=C3)cc1`, the ΔCt ([1]; not a binding constant) is reported as greater than 2.
`O=C1CCC[C@@H]2[C@H]3CCC[N+]4([O-])CCC[C@@H](CN12)[C@@H]34` (some centres unmarked) was tested, and the KD [2] was 39 µM, the KD [3] was 101 µM and the binding [4] was “no”. For the same compound, the binding [5] was “no”, the binding [6] was “no” and the binding [7] was “no”. The binding [8] was “yes”, the ΔTm [9] was 3.6 °C and the binding [10] was “no”. For the same compound, the binding [1] was “no”.
